In paper PMC6457909 (Science (New York, N.Y.), 2019):

Columns and labels:
[1] = system: H1N1 A/California/07/2009 (H1/Cal); format: cell-based, influenza A virus; conditions: read-out: virus neutralization EC50 for H1/Cal
[2] = system: H1N1 A/New Caledonia/20/1999 (H1/NCa); format: cell-based, influenza A virus; conditions: read-out: virus neutralization EC50 for H1/NCa
[3] = system: influenza A group 1 viruses; format: cell-based, influenza A virus
In vivo pharmacokinetics = test: In vivo pharmacokinetics; design: species or system mouse; conditions: mice
[4] = system: panel of pharmacologically relevant receptors, ion channels, and transporters; test: In vitro selectivity profiling; format: binding; conditions: 10 µM
H1N1 A/PR/8/1934 virus [5] = test: Mouse influenza challenge, lethal; format: in vivo; conditions: for survival at day 21: lethal challenge 25x MLD
H1N1 A/PR/8/1934 virus [6] = test: Mouse influenza challenge, sublethal; format: in vivo; conditions: for survival: sublethal challenge (MLD90)
[7] = system: H1N1 A/PR/8/1934 virus in human bronchial epithelial cells (HBEC); test: Viral neutralization assay in HBEC cultures; format: cell-based; conditions: 96 hours post-infection
[8] = system: H1N1 A/Brisbane/59/2007 HA; format: biochemical, influenza A virus; conditions: pH 5.25
H5 HA compared to H1 HA = format: binding, influenza A virus
Kinetic solubility = conditions: versus earlier compounds
MDCK cells = test: Cell toxicity assay
[9] = Metabolic stability in liver microsomes; conditions: human liver microsomes, versus earlier compounds
[10] = Metabolic stability in liver microsomes; conditions: murine liver microsomes, versus earlier compounds

With CC(=O)Nc1ccc2oc(-c3ccnc(C(=O)N4CCN([C@H](c5ccccc5)c5nnn(C)n5)CC4)c3)nc2c1 [JNJ4796] the EC50 [1] was 66 nM, the EC50 [2] was 38 nM and the “breadth of virus neutralization” value [3] was “heterosubtypic group 1 HA binding and virus neutralization breadth”. The “half-life (t½)” value (In vivo pharmacokinetics; after oral administration) was 2.4 h, the overall bioavailability (In vivo pharmacokinetics; oral) was 30.0% and the “plasma concentration (Cmax)” value (In vivo pharmacokinetics; oral administration at 10 mg/kg) was 1152 ng/mL. The inhibition of off-targets [4] was “does not substantially inhibit any of these potential off-targets”, the “survival at day 21” value (H1N1 A/PR/8/1934 virus [5]; 10 mg/kg twice daily oral) was 100% and the “survival at day 21” value (H1N1 A/PR/8/1934 virus [5]; 50 mg/kg twice daily oral) was 100%. The “morbidity (animal weight loss)” value (H1N1 A/PR/8/1934 virus [5]; lethal challenge, 50 and 10 mg/kg) was “only partly alleviated morbidity”, the survival (H1N1 A/PR/8/1934 virus [6]; 5 mg/kg twice daily oral) was 100% and the survival (H1N1 A/PR/8/1934 virus [6]; 15 mg/kg twice daily oral) was 100%. The weight loss (H1N1 A/PR/8/1934 virus [6]; sublethal challenge, 15 and 5 mg/kg twice daily) was “only moderate weight loss effects”, the viral titers [7] was “dramatically reduced the viral titers” and the “inhibition of low pH-induced HA conformational change” value [8] was “dose-dependently prevents pH-induced transition of HA to the post-fusion conformation”. The “decrease of binding affinity to H5 HA compared to H1 HA” value (H5 HA compared to H1 HA) was ~ 25 fold, the “aqueous solubility (in words)” value (Kinetic solubility) was “increased” and the cytotoxicity (MDCK cells) was “without cytotoxicity”. For the same compound, the “intrinsic clearance (in words)” value [9] was “significantly reduced” and the “intrinsic clearance (in words)” value [10] was “significantly reduced”.
